Key:
Assay type in all cases: in vivo
Details in all cases: 250 g/ha, evaluated after 13 days
ABUTH [1] = assay: Post-emergence Test, glasshouse, ABUTH
Method: (§1) Seeds of a variety of test species are sown in standard soil in pots Amaranthus retoflexus (AMARE), Echinochloa crus-galli (ECHCG), Setaria faberi (SETFA)). After cultivation for one day (pre-emergence) or after 8 days cultivation (post-emergence) under controlled conditions in a glasshouse (at 24/16° C., day/night; 14 hours light; 65% humidity), the plants are sprayed with an aqueous spray solution derived from the formulation of the technical active ingredient in acetone/water (50:50) solution containing 0.5% Tween™ 20 (polyoxyethelyene sorbitan monolaurate, CAS RN 9005-64-5). Compounds are applied at 250 g/ha unless otherwise stated. The test plants are then grown in a glasshouse under controlled conditions in a glasshouse (at 24/16° C., day/night; 14 hours light; 65% humidity) and watered twice daily. After 13 days for pre- and post-emergence, the test is evaluated for the percentage damage caused to the plant. The biological activities are shown in the following table on a five-point scale (5=81-100%; 4=61-80%; 3=41-60%; 2=21-40%; 1=0-20%).

[2] = tested on: Amaranthus retoflexus (AMARE); assay: Post-emergence Test, glasshouse, AMARE
Method: as §1

[3] = tested on: Echinochloa crus-galli (ECHCG); assay: Post-emergence Test, glasshouse, ECHCG
Method: as §1

ABUTH [4] = assay: Pre-emergence Test, glasshouse, ABUTH
Method: as §1

IPOHE [5] = assay: Post-emergence Test, glasshouse, IPOHE
Method: as §1

[6] = tested on: Amaranthus retoflexus (AMARE); assay: Pre-emergence Test, glasshouse, AMARE
Method: as §1

IPOHE [7] = assay: Pre-emergence Test, glasshouse, IPOHE
Method: as §1

Setaria faberi (SETFA) [8] = assay: Pre-emergence Test, glasshouse, SETFA
Method: as §1

Setaria faberi (SETFA) [9] = assay: Post-emergence Test, glasshouse, SETFA
Method: as §1

[10] = tested on: Echinochloa crus-galli (ECHCG); assay: Pre-emergence Test, glasshouse, ECHCG
Method: as §1

| Structure (SMILES) | percentage damage caused to the plant, five-point scale, ABUTH (ABUTH [1]) | percentage damage caused to the plant, five-point scale, AMARE [2] | percentage damage caused to the plant, five-point scale, ECHCG [3] | percentage damage caused to the plant, five-point scale, ABUTH (ABUTH [4]) | percentage damage caused to the plant, five-point scale, IPOHE (IPOHE [5]) | percentage damage caused to the plant, five-point scale, AMARE [6] | percentage damage caused to the plant, five-point scale, IPOHE (IPOHE [7]) | percentage damage caused to the plant, five-point scale, SETFA (Setaria faberi (SETFA) [8]) | percentage damage caused to the plant, five-point scale, SETFA (Setaria faberi (SETFA) [9]) | percentage damage caused to the plant, five-point scale, ECHCG [10] |
| --- | --- | --- | --- | --- | --- | --- | --- | --- | --- | --- |
| FC(F)(F)CCCn1nc(Cl)c2c(Cl)cc(Cl)c(Oc3ncc(Cl)cn3)c21 [Compound 1.027] | 2 (2=21-40%) | 4 (4=61-80%) | 4 (4=61-80%) | 1 (1=0-20%) | 1 (1=0-20%) | 4 (4=61-80%) | 1 (1=0-20%) | 1 (1=0-20%) | 3 (3=41-60%) | – |
| FC(F)(F)CCCn1nc(C(F)(F)F)c2cccc(Oc3ncc(Cl)cn3)c21 [Compound 1.022, 7-(5-chloropyrimidin-2-yl)oxy-1-(4,4,4-trifluorobutyl)-3-(trifluoromethyl)indazole] | 5 (5=81-100%) | 5 (5=81-100%) | – | 4 (4=61-80%) | 4 (4=61-80%) | 5 (5=81-100%) | 4 (4=61-80%) | 5 (5=81-100%) | 5 (5=81-100%) | 5 (5=81-100%) |
| N#Cc1cc(Oc2ncc(Cl)cn2)c2c(cnn2CCCC(F)(F)F)c1 [Compound 1.024] | 2 (2=21-40%) | 2 (2=21-40%) | – | 1 (1=0-20%) | 1 (1=0-20%) | 4 (4=61-80%) | 1 (1=0-20%) | 4 (4=61-80%) | 1 (1=0-20%) | – |
| N#Cc1cc(Oc2ncc(Cl)cn2)c2c(c1)c(Cl)nn2CCCC(F)(F)F [Compound 1.030] | 1 (1=0-20%) | 4 (4=61-80%) | 2 (2=21-40%) | 1 (1=0-20%) | 1 (1=0-20%) | 1 (1=0-20%) | 1 (1=0-20%) | 1 (1=0-20%) | 2 (2=21-40%) | – |
| Cc1nn(CCCC(F)(F)F)c2c(Oc3ncc(Cl)cn3)cccc12 [Compound 1.021, 7-(5-chloropyrimidin-2-yl)oxy-3-methyl-1-(4,4,4-trifluorobutyl)indazole] | 4 (4=61-80%) | 1 (1=0-20%) | – | 3 (3=41-60%) | 3 (3=41-60%) | 5 (5=81-100%) | 2 (2=21-40%) | 5 (5=81-100%) | 4 (4=61-80%) | – |
| N#Cc1ccc(Oc2ncc(Cl)cn2)c2c1c(Cl)nn2CCCC(F)(F)F [Compound 1.029] | 1 (1=0-20%) | 4 (4=61-80%) | – | 1 (1=0-20%) | 1 (1=0-20%) | 2 (2=21-40%) | 1 (1=0-20%) | 1 (1=0-20%) | 1 (1=0-20%) | – |
| COc1cc(Oc2cccc3nnn(CCCC(F)(F)F)c23)ncn1 [Compound 1.023] | 1 (1=0-20%) | 1 (1=0-20%) | – | 1 (1=0-20%) | 1 (1=0-20%) | 1 (1=0-20%) | 1 (1=0-20%) | 1 (1=0-20%) | 1 (1=0-20%) | – |
| FC(F)(F)CCCn1nc(Cl)c2c(Br)ccc(Oc3ncc(Cl)cn3)c21 [Compound 1.028] | 2 (2=21-40%) | 5 (5=81-100%) | – | 1 (1=0-20%) | 1 (1=0-20%) | 4 (4=61-80%) | 1 (1=0-20%) | 2 (2=21-40%) | 3 (3=41-60%) | – |
| FC(F)(F)CCCn1nc(Cl)c2c(Cl)ccc(Oc3ncc(Cl)cn3)c21 [Compound 1.026] | 4 (4=61-80%) | 5 (5=81-100%) | – | 2 (2=21-40%) | 2 (2=21-40%) | 5 (5=81-100%) | 1 (1=0-20%) | 3 (3=41-60%) | 5 (5=81-100%) | 5 (5=81-100%) |
| FC(F)(F)CCCn1nnc2cccc(Oc3ncc(Cl)cn3)c21 [Compound 1.020, 7-(5-chloropyrimidin-2-yl)oxy-1-(4,4,4-trifluorobutyl) benzotriazole] | 3 (3=41-60%) | 2 (2=21-40%) | – | 4 (4=61-80%) | 2 (2=21-40%) | 5 (5=81-100%) | 2 (2=21-40%) | 5 (5=81-100%) | 5 (5=81-100%) | – |
| FC(F)(F)CCCn1ncc2c(Cl)cc(Cl)c(Oc3ncc(Cl)cn3)c21 [Compound 1.018] | 1 (1=0-20%) | 1 (1=0-20%) | 1 (1=0-20%) | 1 (1=0-20%) | 1 (1=0-20%) | – | 1 (1=0-20%) | 1 (1=0-20%) | 1 (1=0-20%) | 1 (1=0-20%) |
| FC(F)(F)CCCn1ncc2c(Br)ccc(Oc3ncc(Cl)cn3)c21 [Compound 1.025] | 2 (2=21-40%) | 2 (2=21-40%) | – | 1 (1=0-20%) | 1 (1=0-20%) | 1 (1=0-20%) | 1 (1=0-20%) | 2 (2=21-40%) | 2 (2=21-40%) | – |
